In test [1] the target is stromelysin (Homo sapiens, UniProt P08254). As to the kind of experiment: Stromelysin inhibition (hydrolysis of 14C acetylated casein). In kind it is biochemical. Particulars: 37°, 16 hours, pH 7.5, 14C acetylated casein. The method, then: The potency of compounds of the invention as inhibitors of stromelysin was determined by the procedure of Cawston et al, (Biochem. J., 195, 159-165, 1981), hereby incorporated by reference, whereby a 1 mM solution of the compound being tested, or a dilution thereof, was incubated at 37° for 16 hours with stromelysin and ^14 C acetylate casein (buffered with 25 mM Hepes [Registered Trade Mark], pH 7.5 containing 5 mM CaCl2, 0.05% Brij [Registered Trade Mark] 35 and 0.02% NAN3). The casein was acetylated ^14 C casein prepared by the method of Cawston et al (ibid).
stromelysin, sequence (P08254 100-477): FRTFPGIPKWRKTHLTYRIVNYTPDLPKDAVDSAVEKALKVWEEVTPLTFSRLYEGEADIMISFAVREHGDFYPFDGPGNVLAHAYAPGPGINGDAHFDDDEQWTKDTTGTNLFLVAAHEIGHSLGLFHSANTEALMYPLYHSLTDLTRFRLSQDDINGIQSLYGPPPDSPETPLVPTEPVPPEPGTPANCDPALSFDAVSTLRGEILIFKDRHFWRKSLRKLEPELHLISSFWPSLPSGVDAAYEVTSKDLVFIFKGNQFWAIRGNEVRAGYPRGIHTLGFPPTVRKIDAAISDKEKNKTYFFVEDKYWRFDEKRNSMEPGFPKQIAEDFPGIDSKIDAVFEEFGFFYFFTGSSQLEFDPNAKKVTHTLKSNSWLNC

Test [2] addresses collagenase (Homo sapiens, UniProt P03956). Briefly: Collagenase inhibition (hydrolysis of acetylated 14C collagen). The test is classed as biochemical. As to conditions: 37° C., 16 hours, pH 7.5, acetylated 14C collagen. The procedure: The potency of compounds of the invention as inhibitors of collagenase was determined by the procedure of Cawston and Barrett, (Anal. Biochem., 99, 340-345, 1979), hereby incorporated by reference, whereby a 1 mM solution of the compound being tested, or a dilution thereof, was incubated at 37° C. for 16 hours with collagen and collagenase (buffered with 25 mM Hepes [Registered Trade Mark], pH 7.5 containing 5 mM CaCl2, 0.05% Brij [Registered Trade Mark] 35 and 0.02% NAN3). The collagen Was acetylated 14C collagen prepared by the method of Cawston and Murphy, (Methods in Enzymology, 80, 711, 1981), hereby incorporated by reference. The samples were centrifuged to sediment undigested collagen, and an aliquot of the radioactive supernatant removed for assay on a scintillation counter as a measure of hydrolysis.

The values that follow come from patent US5696082A, “Hydroxamic acid derivatives” (British Biotech Pharmaceuticals Limited, priority 1993, dated 1997).

collagenase, sequence (P03956 100-469): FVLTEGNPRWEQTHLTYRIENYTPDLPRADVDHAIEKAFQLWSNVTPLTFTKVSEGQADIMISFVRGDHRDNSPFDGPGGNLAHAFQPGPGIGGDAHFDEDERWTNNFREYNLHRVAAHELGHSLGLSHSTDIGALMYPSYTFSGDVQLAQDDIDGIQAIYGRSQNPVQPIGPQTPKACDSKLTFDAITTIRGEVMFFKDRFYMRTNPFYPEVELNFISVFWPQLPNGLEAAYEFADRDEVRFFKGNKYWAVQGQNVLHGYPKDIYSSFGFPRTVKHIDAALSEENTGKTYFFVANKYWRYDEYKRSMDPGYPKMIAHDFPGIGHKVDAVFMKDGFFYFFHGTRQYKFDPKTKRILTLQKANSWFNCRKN

In general, IC50 refers to the midpoint of a concentration-inhibition curve. With `CNC(=O)[C@H](Cc1ccc(OCC(=O)N[C@@H]2O[C@H](CO)[C@@H](O)[C@H](O)[C@H]2NC(C)=O)cc1)NC(=O)[C@@H](CC(=O)NO)CC(C)C` [Example 3, [4-(N-Hydroxyamino)-2R-isobutylsuccinyl]-O-[(2-acetamido-2-deoxy-β-D-glucopyranosyl)carboxamidomethyl]-L-tyrosine-N-methylamide], the figures for the IC50 in test [1] and in test [2] were 600 nM and 20 nM, respectively.
